Assay results taken from patent US20230265389A1, “METHOD OF TRANSFECTING MACROPHAGES” (The University Court of The University of Edinburgh, priority 2020, published 2023).

Columns and labels:
hMDMs = assay: Phagocytosis assay with pHrodo E. coli red beads; format: cell-based, human; settings: GFP-transfected hMDMs relative to untransfected hMDMs
Procedure: Cells were seeded in 96 well plates at a density of 200,000 per well in triplicate wells and left to adhere overnight. The following day, medium was aspirated and replaced with TexMACS medium containing NucBlue reagent (Invitrogen) and incubated for 30 min at 37° C. to stain nuclei. Medium was aspirated, cells washed in PBS, and then 100 µl PBS was added to cells. 100 µl of pHrodo E. coli red beads (diluted 1:10 in PBS) was added to the cells, and the cells were observed using an Operetta (PerkinElmer) to photograph fluorescence every 5 minutes over 145 minutes using a 40X objective. Images were analysed using Columbus. Nuclei were identified by NucBlue staining, and pHrodo red fluorescence intensity was measured in a cytoplasmic ring region around the nucleus. Fluorescence is reported as average pHrodo red fluorescence per nucleus.

[1] = tested on: human monocyte-derived macrophages; assay: Phase/contrast microscopy of transfected macrophages cultured with STING inhibitor; format: cell-based
Source text: (D) In vitro phagocytosis assay of untransfected hMDMs (control) versus GFP-transfected macrophages treated with BX-795 (GFP + BX-795), with M2-like polarising factors (GFP + BX-795 + IL4/IL13 or IL10) or DMSO control (GFP). (E) Serum liver function tests and histological analysis of picrosirius red (PSR) staining of collagen in chronic CCl4mice treated with cryopreserved hMDM (cryo), GFP-transfected hMDM treated with DMSO (GFP), GFP-transfected hMDM treated with BX-795 (GFP+B) or PBS vehicle (vehicle). *p<0.05 one-way ANOVA.
Monocyte-derived macrophages were harvested, counted and resuspended at a density of 5 × 10^7 cells/mL of CliniMACS Electroporation Buffer (Miltenyi). 25-100 µg/mL of pMax-GFP plasmid (Lonza) was mixed with the cell suspension for electroporation. For electroporation, 100 µl of cell/plasmid mix was introduced into 0.2 cm electroporation cuvettes and electroporation conducted with the CliniMACS Prodigy Electroporator (Miltenyi). Parameters assessed were 1st pulse voltage and type, and 2nd pulse voltage, type and length. Following electroporation, cells were cultured as above, with or without the STING inhibitor BX-795 (Invivogen) up to a concentration of 10 µM.

## O=C(NCCCNc1nc(Nc2cccc(NC(=O)N3CCCC3)c2)ncc1I)c1cccs1 [BX-795]
hMDMs
  phagocytic capacity (average fluorescence of pHRodo beads per cell), of non-genetically modified hMDMs: approximately 66%
[1]; inhibitor at 10 µM
  cell health and GFP expression: some loss of cells
[1]; inhibitor up to 8 µM
  cell health and GFP expression: remained healthy and GFP-expressing
